Where a SMILES comes first, the peptide text is derived from it. [ ]: non-standard residue; d: D form. The star is where a group is joined. Tle = CC(C)(C)[C@H](N)C(=O)O; NMeA = CN[C@@H](C)C(=O)O; Boc = CC(C)(C)OC(=O)*; Aib = CC(C)(N)C(=O)O; OtBu = CC(C)(C)O*; tBu = CC(C)(C)*

The subject of one test is peptide-forming enzyme (Mono S fraction enzyme). Put plainly: Enzyme substrate specificity (1)-(10), (13), (14): peptide production. The arrangement: key to Formed peptide: +: those peptides for which production was confirmed but which were unable to be quantified due to the absence of a standard; a trace amount. Conditions: L or D amino acid methyl ester hydrochloride 100 mM, L or D amino acid 150 mM, pH 9.0, 25° C., 3 hours. It is filed as biochemical, Empedobacter brevis. The protocol:
Ester specificity was examined in the case of using L-amino acid ester for the carboxy component. 2 μl of the same enzyme fraction as used in Example 5 was added to 100 μl of 100 mM borate buffer (pH 9.0) containing the carboxy components indicated in Table 4 at 100 mM, 200 mM L-glutamine and 10 mM EDTA, and allowed to react at 25° C. for 2 hours. HCl represents hydrochloride in Table 4.
Peptide production was examined in the case of using L-alanine methyl ester for the carboxy component and using various L-amino acids for the amine component.
Peptide production was examined in the case of using various types of L-amino acid methyl esters for the carboxy component and using L-glutamine for the amine component. 2 μl of the same enzyme fraction as used in Example 5 was added to 100 μl of 100 mM borate buffer (pH 9.0) containing the L-amino acid methyl ester hydrochloride salts (AA-OMe.HCl) shown in Table 6 at 100 mM, 150 mM L-glutamine and 10 mM EDTA, and allowed to react at 25° C. for 3 hours. […] Furthermore, Tween-80 was added to the reaction system to a final concentration of 0.1% in the case of using L-Trp-OMe and L-Tyr-OMe.
Peptide production was examined in the case of using various L-amino acid methyl esters for the carboxy component and various L-amino acids for the amine component. 2 μl of the same enzyme fraction as used in Example 5 was added to 100 μl of 100 mM borate buffer (pH 9.0) containing the L-amino acid methyl ester hydrochloride salts (AA-OMe.HCl) shown in Table 7 at 100 mM, the L-amino acids shown in Table 7 at 150 mM and 10 mM EDTA, and allowed to react at 25° C. for 3 hours. The “tr” indicates a trace amount. Furthermore, Tween-80 was added to the reaction system to a final concentration of 0.1% in the case of using L-Trp-OMe.
Peptide production was examined in the case of using the L or D forms of various amino acid methyl esters for the carboxy component, and the L or D forms of various amino acids for the amine component. 2 μl of the same enzyme fraction as used in Example 5 was added to 100 μl of 100 mM borate buffer (pH 9.0) containing the various amino acid methyl ester hydrochloride salts (AA-OMe HCl) shown in Table 8 at 100 mM, the various amino acids shown in Table 8 at 150 mM and 10 mM EDTA, and allowed to react at 25° C. for 3 hours. The “tr” indicates a trace amount.
Peptide production was examined using various L-amino acid amides for the carboxy component, and various L-amino acids for the amine component. 2 μl of the same enzyme fraction as that used in Example 5 was added to 100 μl of 100 mM borate buffer (pH 9.0) containing the L-amino acid amide hydrochloride salt (M-NH2.HCl) shown in Table 9 at 100 mM, the L-amino acids shown in Table 9 at 150 mM and 10 mM EDTA, and allowed to react at 25° C. for 3 hours.
Peptide production was examined in the case of using various L-alanine methyl esters for the carboxy component and C-protected L-amino acids for the amine component. 2 μl of the same enzyme fraction as used in Example 5 was added to 100 μl of 100 mM borate buffer (pH 9.0) containing the L-alanine methyl ester hydrochloride hydrochloride salt (Ala-OMe.HCl) shown in Table 10 at 100 mM, the L-amino acid amide hydrochloride salts shown in Table 10 at 150 mM and 10 mM EDTA, and allowed to react at 25° C. for 3 hours.
Peptide production was examined in the case of using various amino acid methyl esters for the carboxy component and methylamine for the amine component. 2 μl of the same enzyme fraction as used in Example 5 was added to 100 μl of 100 mM borate buffer (pH 9.0) containing the amino acid methyl ester hydrochloride salt (M-OMe.HCl) shown in Table 11 at 100 mM, the methylamine shown in Table 11 at 150 mM and 10 mM EDTA, and allowed to react at 25° C. for 3 hours.
Peptide production was examined in the case of using […] for the carboxy component or β-amino acid for the amine component.
As for `C[C@@H](N)C(=O)N[C@H](CCC(N)=O)C(=O)O` [D-Ala-D-Gln] (H-[dA]-[dQ]-OH), the Formed peptide result is “tr”.

In the case of `C[C@@H](N)C(=O)N[C@@H](CCC(N)=O)C(=O)O` [D-Ala-L-Gln] (H-[dA]-Gln-OH), the Formed peptide is reported as 69.3 mM. `CSCC[C@@H](N)C(=O)N[C@H](CO)C(=O)O` [D-Met-D-Ser] (H-[dM]-[dS]-OH) showed a Formed peptide of 2.7 mM. `CSCC[C@@H](N)C(=O)N[C@@H](CO)C(=O)O` [D-Met-L-Ser] (H-[dM]-Ser-OH) displayed a Formed peptide of 5.1 mM. The compound `N[C@H](CO)C(=O)N[C@H](CO)C(=O)O` [D-Ser-D-Ser] (H-[dS]-[dS]-OH) yielded a Formed peptide of 2.5 mM. On to `N[C@H](CO)C(=O)N[C@@H](CO)C(=O)O` [D-Ser-L-Ser] (H-[dS]-Ser-OH), for which the Formed peptide is listed as 3.3 mM. Still for that read-out and setting: in the case of `C[C@H](O)[C@@H](N)C(=O)N[C@H](CO)C(=O)O` [D-Thr-D-Ser] (H-[dT]-[dS]-OH) it was 1.1 mM; in that of `C[C@H](O)[C@@H](N)C(=O)N[C@@H](CO)C(=O)O` [D-Thr-L-Ser] (H-[dT]-Ser-OH), 1.0 mM. `CC(C)[C@@H](N)C(=O)N[C@H](CO)C(=O)O` [D-Val-D-Ser] (H-[dV]-[dS]-OH) had a Formed peptide of 0.5 mM. `CC(C)[C@@H](N)C(=O)N[C@@H](CO)C(=O)O` [D-Val-L-Ser] (H-[dV]-Ser-OH): the Formed peptide stood at 0.6 mM. Compound `C[C@H](N)C(=O)N[C@H](CCC(N)=O)C(=O)O` [L-Ala-D-Gln] (H-Ala-[dQ]-OH) displayed a Formed peptide of 0.3 mM. On the same count and under the same terms, the figure for `CSCC[C@H](N)C(=O)N[C@H](CO)C(=O)O` [L-Met-D-Ser] (H-Met-[dS]-OH) is 1.9 mM; for `N[C@@H](CO)C(=O)N[C@H](CO)C(=O)O` [L-Ser-D-Ser] (H-Ser-[dS]-OH) it is 16.2 mM; for `C[C@@H](O)[C@H](N)C(=O)N[C@H](CO)C(=O)O` [L-Thr-D-Ser] (H-Thr-[dS]-OH) it is 6.9 mM.

Staying with this test, now noted: L-amino acid amide hydrochloride as carboxy component 100 mM, L-amino acid 150 mM, pH 9.0, 25° C., 3 hours.
As to `N[C@@H](Cc1ccccc1)C(=O)N[C@@H](CO)C(=O)O` [L-Phe-L-Ser] (H-Phe-Ser-OH), the Formed peptide came out at 0.6 mM.

Staying with this test, now noted: L-amino acid methyl ester hydrochloride 100 mM, 150 mM L-glutamine, pH 9.0, 25° C., 3 hours.
Consider `NC(=O)CC[C@H](NC(=O)[C@@H](N)CC(N)=O)C(=O)O` [L-Asn-L-Gln] (H-Asn-Gln-OH), for which the Formed peptide result is recorded as “+”. In the case of `NC(=O)CC[C@H](NC(=O)[C@@H](N)CS)C(=O)O` [L-CySH-L-Gln] (H-Cys-Gln-OH), the Formed peptide entry is given as “+”. Regarding `NC(=O)CC[C@H](NC(=O)[C@@H](N)Cc1cnc[nH]1)C(=O)O` [L-His-L-Gln] (H-His-Gln-OH), the Formed peptide entry is “+”.

In the case of `CC(C)C[C@H](N)C(=O)N[C@@H](CCC(N)=O)C(=O)O` [L-Leu-L-Gln] (H-Leu-Gln-OH), the Formed peptide result is on record as “+”. The same measure, in the same setting: the entry for `NCCCC[C@H](N)C(=O)N[C@@H](CCC(N)=O)C(=O)O` [L-Lys-L-Gln] (H-Lys-Gln-OH) is “+”.

The test is the same for the next values; noted with them: L-amino acid methyl ester hydrochloride 100 mM, L-amino acid 150 mM, pH 9.0, 25° C., 3 hours.
`NCC(=O)N[C@@H](CS)C(=O)O` [Gly-L-CySH] (H-Gly-Cys-OH) showed a Formed peptide of 45.6 mM.

As to `NC(=O)C[C@H](N)C(=O)N[C@@H](CCC(=O)O)C(=O)O` [L-Asn-L-] (H-Asn-Glu-OH), the Formed peptide is on record as 10.2 mM. In turn, `CSCC[C@H](NC(=O)[C@@H](N)Cc1cnc[nH]1)C(=O)O` [L-His-L-Met] (H-His-Met-OH) displayed a Formed peptide of 6.5 mM. As to `CSCC[C@H](NC(=O)[C@@H](N)CC(C)C)C(=O)O` [L-Leu-L-] (H-Leu-Met-OH), the Formed peptide was 12.2 mM. On the same count and under the same terms, the figure for `CSCC[C@H](NC(=O)[C@@H](N)CCCCN)C(=O)O` [L-Lys-L-Met] is 6.8 mM.

Still in this test, the particulars now being: carboxy component 40 mM, amine component 40 mM, 0.1 unit enzyme, 25° C., reaction time 3 hr.
The compound `C[C@H](N)C(=O)N[C@@H](Cc1ccc(Cl)cc1)C(=O)O` [H-Ala-Cl-F-Phe-OH] yielded a Produced peptide of 20.8 mM. On to `C[C@H](N)C(=O)N[C@@H](Cc1ccc([N+](=O)[O-])cc1)C(=O)O` [H-Ala-p-NO2-Phe-OH], for which the Produced peptide came out at 27.5 mM.

Regarding `NC(=O)CC[C@H](NC(=O)[C@@H](N)Cc1ccc([N+](=O)[O-])cc1)C(=O)O` [H-p-NO2-Phe-H-Gln-OH], the Produced peptide is 1.1 mM.

Staying with this test, now noted: carboxy component 50 mM, amine component 50 mM, 0.1 unit enzyme, 25° C., reaction time 3 hr.
Take `C[C@H](N)C(=O)N[C@@H](Cc1ccc(F)cc1)C(=O)O` [H-Ala-p-F-Phe-OH]: the Produced peptide is 21.9 mM.

The test is the same for the next values; noted with them: carboxy component 100 mM, 200 mM L-glutamine, pH 9.0, 25° C., 2 hours.
`CCOC(=O)[C@H](C)N.Cl` [L-Alanine ethyl ester.HCl] came in with a L-Ala-L-Gln formed of 91.5 mM. Take `CC(C)OC(=O)[C@H](C)N.Cl` [L-Alanine isopropyl ester.HCl]: the L-Ala-L-Gln formed was determined as 78.9 mM. In turn, `COC(=O)[C@H](C)N.Cl` [L-Alanine methyl ester.HCl, L-alanine methyl ester hydrochloride] yielded a L-Ala-L-Gln formed of 84.3 mM. `C[C@H](N)C(=O)OC(C)(C)C.Cl` [L-Alanine-t-butyl ester.HCl] gave a L-Ala-L-Gln formed of 7.5 mM.

Still in this test, the particulars now being: carboxy component 100 mM, amine component 150 mM, 0.1 unit enzyme, 25° C., reaction time 2 hr.
In turn, `C[C@H](N)C(=O)N[C@@H](CC(=O)OC(C)(C)C)C(=O)O` [H-Ala-Asp(OtBu)-OH] (H-Ala-Asp(OtBu)-OH) displayed a Produced peptide of 62.6 mM. `C[C@H](N)C(=O)N[C@@H](CCCCNC(=O)OC(C)(C)C)C(=O)O` [H-Ala-Lys(Boc)-OH] (H-Ala-Lys(Boc)-OH) displayed a Produced peptide of 51.0 mM. In the case of `C[C@H](N)C(=O)N[C@@H](COC(C)(C)C)C(=O)O` [H-Ala-Ser(tBu)-OH] (H-Ala-Ser(tBu)-OH), the Produced peptide is reported as 48.8 mM.

In turn, `CC(C)(C)OC(=O)C[C@H](N)C(=O)N[C@@H](CCC(N)=O)C(=O)O` [H-Asp(OtBu)-Gln-OH] (H-Asp(OtBu)-Gln-OH) showed a Produced peptide of 0.9 mM.

The same test, now with this note: carboxy component 100 mM, amine component 150 mM, 0.1 unit enzyme, 25° C., reaction time 3 hr.
`CC(C)(N)C(=O)N[C@@H](CCC(N)=O)C(=O)O` [H-Aib-H-Gln-OH] (H-[Aib]-Gln-OH) gave a Produced peptide of 18.8 mM. Still for that read-out and setting: the figure for `CC(C)(N)C(=O)N[C@@H](Cc1ccccc1)C(=O)O` [H-Aib-Phe-OH] (H-[Aib]-Phe-OH) is 17.2 mM; for `C[C@H](N)C(=O)N[C@H](C(=O)O)C(C)(C)C` [H-Ala-t-Leu-OH] (H-Ala-[Tle]-OH) it is 0.4 mM. In turn, `CN[C@@H](C)C(=O)N[C@@H](CCC(N)=O)C(=O)O` [H-N-Me-Ala-H-Gln-OH] (H-[NMeA]-Gln-OH) yielded a Produced peptide of 0.5 mM.

Staying with this test, now noted: β-amino acid ester or β-amino acid; carboxy component 100 mM, amine component 150 mM, pH 9.0, 25° C., 3 hours.
Take `CC(N)C(=O)NCCC(=O)O` (stereo not drawn) [Ala-β-Ala]: the Formed peptide amounted to 7.7 mM.

The compound `CC(N)C(=O)NC(CC(=O)O)c1ccccc1` (stereo not drawn) [Ala-β-Phe] yielded a Formed peptide of 1.4 mM. `NCC(=O)NCCC(=O)O` [Gly-β-Ala] registered a Formed peptide of 2.2 mM. `NCC(=O)NC(CC(=O)O)c1ccccc1` (stereo not drawn) [Gly-β-Phe] returned a Formed peptide of 0.4 mM.

Source of the values: US20040204577A1, “Novel peptide-forming enzyme gene” (Ajinomoto Co., Inc., priority 2003, published 2004).
